Assay results: PubChem BioAssay AID179 (DTP/NCI, 2004)
Several values for one entry are separate records, joined by “and”; a condition that tells them apart may be missing. Equal entries are not always repeated. Activity calls are given as the source filed them.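 The calls were made as follows: active = compounds giving half or more protection of infected cells from virus-caused growth loss, again on retest; inactive = the rest.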 Where a SMILES comes first, the peptide text is derived from it. The star is where a group is joined. Cbz = O=C(OCc1ccccc1)*

Tested on: CEM cells HIV-1 protection, formazan growth assay
Test: NCI AIDS Antiviral Assay
Conditions: for IC50: measured here: growth of uninfected CEM cells
In short: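 Five concentrations of each compound were applied to infected and uninfected human CEM cells. Protection from HIV-1 was judged from growth measured with a soluble formazan assay.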

SMILES	EC50	IC50	outcome
Cn1c2ccccc2c2c3c(ccc21)C(=O)N(c1ccccc1)C3=O	> 93.3 µM	60.3 µM	–
N#C/C(C(=O)Nc1ccc(Cl)cc1)=C(/N)N1CCCC1	> 200 µM	> 200 µM	–
O=C(CC1C(=O)Nc2ccccc2S1(=O)=O)Nc1cc(Cl)ccc1Cl (centres undefined)	> 18.2 µM	> 18.2 µM	–
C[C@]12CCC(=O)C=C1CC[C@@H]1[C@@H]2C(=O)C[C@@]2(C)[C@H]1CC[C@]2(O)C(=O)CO	> 200 µM	> 200 µM	–
CSC1=Nc2ccccc2N=C(c2ccccc2)C1	> 26.9 µM	> 26.9 µM	–
COc1ccccc1/C=C1\SC(=S)NC1=O	> 200 µM	107 µM	–
CN(C(=O)C12C3C4C1C1C2C3C41C(=O)N(C)C(C)(C)C)C(C)(C)C (centres undefined)	> 30.2 µM	> 30.2 µM	–
NC(=O)C1CCCN1C(=O)N(CCCl)N=O (centres undefined)	> 200 µM	> 200 µM	–
COc1cc(CO)c(CC(=O)NCCCc2ccccc2)cc1OC	> 200 µM	18.2 µM	–
C=C1C(OC(=O)c2ccccc2)C2[C@@H](OC(=O)CC)[C@@H](C)C[C@]2(O)C(=O)[C@@H](C)/C=C/C(C)(C)C(=O)C(O)[C@H]1OC(=O)C(C)C (some centres undefined)	–	–	inactive
CC1CCC2(NC1)OC1CC3[C@@H]4CC=C5C=CCC[C@]5(C)C4CC[C@]3(C)C1C2C (some centres undefined)	> 9.55 µM	> 9.55 µM	–
C=CCOCn1cc(C)c(=O)[nH]c1=O	> 200 µM	> 200 µM	–
CC[C@H]1C2OC(=O)[C@H](C)C2[C@@]2(O)C[C@@H]([C@@H]3C[C@H](C)C(=O)O3)N3CCCC[C@@]12C3=O (some centres undefined)	> 200 µM	> 200 µM	–
COC(=O)[C@]1(C)CCC[C@]2(C)C3CC4OOC3(C=C4C(C)C)CCC21 (some centres undefined)	> 251 µM	11.5 µM	–
C=CCCC1CCCNC1=S (centres undefined)	> 776 µM	708 µM	–
CCOc1cc(NCCCN)c2nc(OCc3ccccc3)ccc2c1	> 200 µM	25.7 µM	–
COc1ccc(C(CC(=O)O)CC(=O)O)cc1[N+](=O)[O-]	> 200 µM	> 200 µM	–
O=C1C(c2ccccc2Cl)[C@H]2CC=C[C@H]2N1O (some centres undefined)	–	–	inactive
CCOC(=O)CCC(NC(=O)C(CC(=O)OC)NC(=O)OCc1ccccc1)C(=O)NC(CC(=O)OC)C(=O)NC(CCC(=O)OCC)C(=O)NC(CC(=O)OC)C(=O)NC(CCC(=O)OCC)C(=O)NC(CC(=O)OC)C(=O)NC(CCC(=O)OCC)C(=O)NC(CC(=O)OC)C(=O)NC(CCC(=O)OCC)C(=O)NC(CC(=O)OCC)C(=O)OCC (centres undefined) (Cbz-D(OMe)E(OEt)D(OMe)E(OEt)D(OMe)E(OEt)D(OMe)E(OEt)D(OMe)E(OEt)D(OEt)-OEt; configuration not given here)	> 50.1 µM	> 50.1 µM	–
COC(=O)NCC(OC(=O)c1cc2c(cc1I)OCO2)C1=CCCCC1 (centres undefined)	> 28.8 µM	> 28.8 µM	–
COC(O)C(=O)c1ccc2c(c1)CC1(C2)Cc2cc3c(cc2C1=O)CCC3 (centres undefined)	> 200 µM	32.4 µM	–
CCn1c(C)nc([N+](=O)[O-])c1Sc1ncc[nH]1	> 977 µM	17.8 µM	–

SMILES	EC50	IC50	outcome
O=S(=O)(OI(O)CC(F)(F)F)C(F)(F)F	> 200 µM	> 200 µM	–
CC1(C)OC2CN(C(=O)OCc3ccccc3)C(CO)C2O1 (centres undefined)	–	–	inactive
Cc1ccc2c(c1)[nH]c(=S)n2C=C(C#N)C#N	> 200 µM	> 200 µM	–
OCCN(CC(O)C(O)CN(CCO)C(=S)S)C(=S)S (centres undefined)	> 58.9 µM	> 58.9 µM	–
CC(C)=CC1CC(=[N+]=[N-])C(=O)C1(C)C (centres undefined)	> 186 µM	> 186 µM	–
COc1ccc2c(c1)Oc1cc(O)ccc1[C@H]2c1ccccc1C(=O)NC(C)c1ccccc1 (some centres undefined)	> 15.8 µM	13.8 µM	–
Cc1ccc2c(c1)nc1n2C(c2c(F)cccc2F)SC1 (centres undefined)	> 200 µM	33.1 µM	–
O=C(/C=C/c1cc(O)c(O)c(O)c1)OCCc1ccccc1	> 50.1 µM	15.5 µM	–
CCOC(=O)c1cc(C2CCN(c3ccccc3)C2=O)c(C(=O)/C=C(/C)N)[nH]1 (centres undefined)	57.5 µM	> 200 µM	–
CCOC(=O)N1C2C=C(C)C(ON2C(=O)c2ccccc2)C2C(C)C(=O)N21 (centres undefined)	> 355 µM	> 355 µM	–
Cn1c([N+](=O)[O-])cnc1CSc1ccc(C#N)cc1	117 µM	> 200 µM	–
CCSc1nc2c([nH]1)c(=S)n(C)c(=S)n2C	> 200 µM	41.7 µM	–
O=C1Sc2cc3c(cc2C(=O)N2CCCC12)OCO3 (centres undefined)	> 182 µM	129 µM	–
CC(=O)/C(=C/N1CCNC1=S)C(=O)Nc1ccc([N+](=O)[O-])cc1	> 200 µM	43.7 µM	–
O=C(O)C1SCCCS1	> 1510 µM	> 1510 µM	–
C[N+]1(C)CCC(OC(=O)C(O)(c2ccccc2)C2CCCC2)C1 (centres undefined)	> 200 µM	> 200 µM	–
COc1ccc2c(-c3ccc(O)cc3)c(Oc3ccc(Cl)cc3)c(=O)oc2c1	> 200 µM	19.1 µM	–
O=C(CC(C(=O)c1ccoc1)c1ccco1)c1ccco1 (centres undefined)	> 200 µM	151 µM	–
CCOP(=O)(OCC)c1c(C(=O)OC)cc(=O)[nH]c1-c1ccc(C)cc1	> 200 µM	7.94 µM	–
CC(C)C(NCc1c2ccccc2nc2ccccc12)C(=O)O (centres undefined)	–	–	inactive
COc1ccc2c(C(=O)O)cc3cc(OC)c(OC)cc3c2c1	–	–	inactive
CCN(CC)CCSc1c2ccccc2nc2cc(NCC(=O)Nc3ccccc3-c3ccccc3NC(=O)CNc3ccc4c(SCCN(CC)CC)c5ccccc5nc4c3)ccc12	> 33.1 µM	> 33.1 µM	–

SMILES	EC50	IC50	outcome
COc1ccccc1S(=O)Nc1ccccc1 (centres undefined)	> 200 µM	> 200 µM	–
CC(C)(C)NNC(=O)CCn1[nH]c(=O)c(Cl)c(Cl)c1=O	> 407 µM	> 407 µM	–
COc1ccc(N2C(=O)/C(=C\c3cc(OC)c(OC)c(OC)c3)SC2c2ccccc2)cc1 (centres undefined)	> 200 µM	51.3 µM	–
CC(C)(C)c1ccc(N=O)cc1	> 20 µM	2.45 µM	–
CC(C)(C)OC(=O)N/N=C(/N)Cc1ccc(Cl)cc1	> 200 µM	162 µM	–
O=S(=O)(OC=C1CCCCC1)C(F)(F)F	> 107 µM	> 107 µM	–
CC(=O)NC(C(=O)N1CCCC1C(=O)O)C(C)C (stereo not drawn) (Ac-Val-Pro-OH; configuration not given here)	> 200 µM	> 200 µM	–
CC(C)(C)C(=O)O[C@H]1C=C[C@@H](O)[C@@H]2[C@H]1[C@@H]1C=C[C@H]2C1	> 200 µM	22.9 µM	–
C=CN1C(=O)[C@H](Oc2ccccc2)[C@@H]1c1ccccc1	> 135 µM	63.1 µM	–
CC(=O)OC1(Sc2ccccc2)CC2[C@H]3COC(C)(C)O[C@H]3CC[C@@]2(C)CC1=O (some centres undefined)	–	–	inactive
C/C(CN1C(=O)c2ccccc2C1=O)=N\NS(=O)(=O)c1ccc(Cl)cc1	> 457 µM	> 457 µM	–
CCCCCCCCCC(O)CC(=O)c1c(O)cccc1O (centres undefined)	> 200 µM	32.4 µM	–
Cc1cccc(C)c1NC(=O)C(C#N)C1=C(Cl)C(=O)c2ccccc2C1=O (centres undefined)	> 26.3 µM	8.71 µM	–
O=C(O)Cc1ccc(SSc2ccc(CC(=O)O)cc2)cc1	46.8 µM and 129 µM	1120 µM and > 200 µM	–
C[C@]12CCC(=O)C=C1CC[C@@H]1C2CC[C@]2(C)NC(=O)C(C#N)CC12 (some centres undefined)	–	–	inactive
O=c1[nH]c(-c2nc3ccccc3c(=O)[nH]2)nc2ccccc12	> 32.4 µM	> 32.4 µM	–
O=C(O)C(CS)N=c1c2ccccc2n(O)c2ccccc12 (centres undefined)	–	–	inactive
CCN=c1cc2oc3cc(NCC)c(C)cc3c(-c3ccccc3C(=O)OCC)c-2cc1C	> 200 µM	0.0631 µM and 0.12 µM	–
O=C1CC(c2ccc[nH]2)=NN1c1ccccc1	> 200 µM	83.2 µM	–
CC1(C)CCC(C)(C)c2cc(C(=O)Nc3ccc(C(=O)O)cc3)ccc21	–	115 µM	inactive
COc1cccc(/C=C2\CCCCCC2=O)c1	> 200 µM	40.7 µM	–
COc1cc2oc(=O)cc(C)c2cc1[N+](=O)[O-]	> 53.7 µM	21.9 µM	–

SMILES	EC50	IC50	outcome
O=C(NS(=O)(=O)Nc1ccccc1)OCc1ccccc1	> 200 µM	> 200 µM	–
CCCCCCCC(=O)OCC1OC(n2cc(F)c(=O)[nH]c2=O)C(N)C(O)C1O (centres undefined)	> 309 µM	> 309 µM	–
CC(C)(C)[Si](C)(C)OCC1OC(n2ccc(=O)[nH]c2=O)C(O[Si](C)(C)C(C)(C)C)C1(CC#N)Sc1ccccc1 (centres undefined)	> 200 µM	10.7 µM	–
CC(=O)NC(C)c1ccc(N=NN2CCCC2)cc1 (centres undefined)	> 200 µM	79.4 µM	–
Cn1c(=O)ccc2cc(C(=O)c3ccccc3)ccc21	> 191 µM	39.8 µM	–
CN(C)c1cc(CNCCc2cnc[nH]2)nc(CNCCc2cnc[nH]2)c1	> 200 µM	12.3 µM	–
Cc1ccc(C2=Nc3ccccc3SC(c3cccc4c3OCO4)C2)cc1 (centres undefined)	> 14.1 µM	> 14.1 µM	–
C[C@]12CC[C@@H]3c4ccc(OS(=O)(=O)O)cc4CC[C@H]3[C@@H]1CCC2=O	–	–	inactive
c1cc2n[se]nc2cc1-c1ccc2n[se]nc2c1	155 µM	> 200 µM	–
O=C1CC(=O)Nc2ccccc2N1	> 200 µM	> 200 µM	–
C=CCN(N=O)C(=O)NCCCCC(NC(C)=O)C(=O)NCc1ccccc1 (centres undefined)	–	–	inactive
COC1OC(C(=O)O)C2OC(C)(C)OC12 (centres undefined)	> 200 µM	> 200 µM	–
OC1C2CN3CCN(C2)CC1(c1ccccc1)C3 (centres undefined)	> 200 µM	> 200 µM	–
Oc1ccc2c(c1)OCC(O)(c1ccccc1O)C2 (centres undefined)	–	–	inactive
CC(C)=CCOc1cc(O)c2c(O)c3c(cc2c1)CC(C)(C)CC3=O	> 100 µM	7.08 µM	–
CCOC(=O)C(C(=N)C(=N)C(C(=O)O)C(=O)OCC)C(=O)O (centres undefined)	–	–	inactive
CC(C)(C)OC(=O)CN1CCN(CC(=O)N2CCN(C(=O)OCc3ccccc3)CC2)CCN(CC(=O)OC(C)(C)C)CCN(CC(=O)N2CCN(C(=O)OCc3ccccc3)CC2)CC1	> 100 µM	1.29 µM	–
N/C1=C/C(=O)NC(=O)c2c(c3ccccc3oc2=O)C1	> 200 µM	> 200 µM	–
COc1cccc(/C=N/[N-]C(N)=O)c1[O-].[Ni+2].[OH3+].c1cnc2c(c1)ccc1cccnc12	–	–	inactive
O=[N+]([O-])c1cc(S(=O)(=O)c2ccc(O)c([N+](=O)[O-])c2)ccc1O	> 200 µM	> 100 µM	–
